# Results reported in publication PMC9950431, “A bivalent remipede toxin promotes calcium release via ryanodine receptor activation” (Nature Communications, 2023).
# “Also recorded” adds a separate entry of the source.
# Assays:
# [1] = tested on: SH-SY5Y neuroblastoma cells; assay: FLIPR intracellular Ca2+ assay, SH-SY5Y cells (direct response); type: cell-based, human; conditions: Xt3a 3 µM
# Method: (§1) SH-SY5Y human neuroblastoma cells (European Collection of Authenticated Cell Culture, Sigma Aldrich, 94030304-1VL) were cultured in RPMI media (ThermoFisher Scientific, Scoresby, Australia) supplemented with 15% foetal bovine serum and L-glutamine (1 mM) and passaged at approximately 80% confluency with TrypLE Express (Thermo Fisher, Australia). For fluorescence imaging, cells were plated on CellBIND (Corning) 384-well black-walled imaging plates at a density of 20,000–30,000 cells/well in complete media and cultured for 48 h at 37 °C/5% CO2.
# Briefly, SH-SY5Y cells were loaded with Calcium 4 no-wash dye (Molecular Devices) diluted in physiological salt solution (composition in mM: NaCl 140, D-glucose 11.5, KCl 5.9, MgCl2 1.4, NaH2PO4 1.2, NaHCO3 5, CaCl2 1.8, HEPES 10) for 30 min at 37 °C. A two-addition FLIPR^Tetra (Molecular Devices) protocol using the following settings was used to measure fluorescence responses: excitation 470–495 nm; emission 515–575 nm; excitation intensity 80%; excitation duration 0.8 s; gain 140; read interval 1/s; read number 300/addition. […] Raw fluorescence readings were converted to response over baseline using the analysis tool Screenworks 3.1.1.4 (Molecular Devices) and were expressed relative to the maximum increase in fluorescence of control responses and plotted using GraphPad Prism 9.3.1.
# CaV1.3 = assay: FLIPR Ca2+ assay, inhibition of endogenous CaV1.3; type: cell-based, human; conditions: for Ca2+ response relative to control response: 3 µM Xt3a pre-treatment, KCl 90 mM/CaCl2 5 mM, over 300 s
# Method: as §1
# (§2) Briefly, SH-SY5Y cells were loaded with Calcium 4 no-wash dye (Molecular Devices) diluted in physiological salt solution (composition in mM: NaCl 140, D-glucose 11.5, KCl 5.9, MgCl2 1.4, NaH2PO4 1.2, NaHCO3 5, CaCl2 1.8, HEPES 10) for 30 min at 37 °C. A two-addition FLIPR^Tetra (Molecular Devices) protocol using the following settings was used to measure fluorescence responses: excitation 470–495 nm; emission 515–575 nm; excitation intensity 80%; excitation duration 0.8 s; gain 140; read interval 1/s; read number 300/addition. Responses mediated via endogenously expressed ion channels were elicited by addition of: choline (30 μM)/PNU-120596 (10 μM) for α7 nAChR-mediated responses; nicotine (30 μM) for α3β2/α3β4 nAChR-mediated responses; KCl (90 mM)/CaCl2 (5 mM) for CaV1.3-mediated responses; KCl (90 mM)/CaCl2 (5 mM) + nifedipine (10 μM) for CaV2.2-mediated responses; vertridine (70 μM) for NaV1.2-mediated responses; and veratridine (4 μM)/OD1 (300 nM) for NaV1.7-mediated responses. Raw fluorescence readings were converted to response over baseline using the analysis tool Screenworks 3.1.1.4 (Molecular Devices) and were expressed relative to the maximum increase in fluorescence of control responses and plotted using GraphPad Prism 9.3.1.
# (§3) In the cell-based FLIPR assays statistical analysis was performed using GraphPad Prism 9.3.1. Statistical significance was defined as p < 0.05, and determined by one-sample t-test assessing difference to the control value of 100%. In α7 nAChR, α3-containing nAChR, CaV1.3, CaV2.2, NaV1.2 and NaV1.7 channels (Supplementary Fig. 5B), with distribution (t) and degrees of freedom (df) being: t = 0.9683, df = 2 (α7); t = 1.338, df = 2 (α3); t = 1.775, df = 2 (NaV1.2); t = 1.478
# [2] = tested on: α3β2/α3β4 nAChR (α3-containing nAChR); assay: FLIPR Ca2+ assay, inhibition of endogenous α3-containing nAChR; type: cell-based, human; conditions: for Ca2+ response relative to control response: 3 µM Xt3a pre-treatment, nicotine 30 μM, over 300 s
# Method: as §1, §2, §3
# ryanodine receptor = biological target: T1, ryanodine receptor (Oryctolagus cuniculus, UniProt P11716); assay: Single channel recording, washout (Woearly, Wolate) after Xt3a, sheet "Figure 3B" (RyR isoform not given); type: biochemical
# T1 construct: skeletal SR vesicles were isolated from the back and leg muscles of mature female New Zealand white rabbits; from tissue; host or cells: rabbit back and leg skeletal muscle, sarcoplasmic reticulum vesicles
# Description: Supplement 41467_2023_36579_MOESM6_ESM.xlsx, sheet "Figure 3B" | column: Woearly; Wolate
# α7 nAChR = assay: FLIPR Ca2+ assay, inhibition of endogenous α7 nAChR; type: cell-based, human; conditions: for Ca2+ response relative to control response: 3 µM Xt3a pre-treatment, choline 30 μM/PNU-120596 10 μM, over 300 s
# Method: as §1, §2, §3
# T1 sequence (P11716 whole entry, canonical isoform): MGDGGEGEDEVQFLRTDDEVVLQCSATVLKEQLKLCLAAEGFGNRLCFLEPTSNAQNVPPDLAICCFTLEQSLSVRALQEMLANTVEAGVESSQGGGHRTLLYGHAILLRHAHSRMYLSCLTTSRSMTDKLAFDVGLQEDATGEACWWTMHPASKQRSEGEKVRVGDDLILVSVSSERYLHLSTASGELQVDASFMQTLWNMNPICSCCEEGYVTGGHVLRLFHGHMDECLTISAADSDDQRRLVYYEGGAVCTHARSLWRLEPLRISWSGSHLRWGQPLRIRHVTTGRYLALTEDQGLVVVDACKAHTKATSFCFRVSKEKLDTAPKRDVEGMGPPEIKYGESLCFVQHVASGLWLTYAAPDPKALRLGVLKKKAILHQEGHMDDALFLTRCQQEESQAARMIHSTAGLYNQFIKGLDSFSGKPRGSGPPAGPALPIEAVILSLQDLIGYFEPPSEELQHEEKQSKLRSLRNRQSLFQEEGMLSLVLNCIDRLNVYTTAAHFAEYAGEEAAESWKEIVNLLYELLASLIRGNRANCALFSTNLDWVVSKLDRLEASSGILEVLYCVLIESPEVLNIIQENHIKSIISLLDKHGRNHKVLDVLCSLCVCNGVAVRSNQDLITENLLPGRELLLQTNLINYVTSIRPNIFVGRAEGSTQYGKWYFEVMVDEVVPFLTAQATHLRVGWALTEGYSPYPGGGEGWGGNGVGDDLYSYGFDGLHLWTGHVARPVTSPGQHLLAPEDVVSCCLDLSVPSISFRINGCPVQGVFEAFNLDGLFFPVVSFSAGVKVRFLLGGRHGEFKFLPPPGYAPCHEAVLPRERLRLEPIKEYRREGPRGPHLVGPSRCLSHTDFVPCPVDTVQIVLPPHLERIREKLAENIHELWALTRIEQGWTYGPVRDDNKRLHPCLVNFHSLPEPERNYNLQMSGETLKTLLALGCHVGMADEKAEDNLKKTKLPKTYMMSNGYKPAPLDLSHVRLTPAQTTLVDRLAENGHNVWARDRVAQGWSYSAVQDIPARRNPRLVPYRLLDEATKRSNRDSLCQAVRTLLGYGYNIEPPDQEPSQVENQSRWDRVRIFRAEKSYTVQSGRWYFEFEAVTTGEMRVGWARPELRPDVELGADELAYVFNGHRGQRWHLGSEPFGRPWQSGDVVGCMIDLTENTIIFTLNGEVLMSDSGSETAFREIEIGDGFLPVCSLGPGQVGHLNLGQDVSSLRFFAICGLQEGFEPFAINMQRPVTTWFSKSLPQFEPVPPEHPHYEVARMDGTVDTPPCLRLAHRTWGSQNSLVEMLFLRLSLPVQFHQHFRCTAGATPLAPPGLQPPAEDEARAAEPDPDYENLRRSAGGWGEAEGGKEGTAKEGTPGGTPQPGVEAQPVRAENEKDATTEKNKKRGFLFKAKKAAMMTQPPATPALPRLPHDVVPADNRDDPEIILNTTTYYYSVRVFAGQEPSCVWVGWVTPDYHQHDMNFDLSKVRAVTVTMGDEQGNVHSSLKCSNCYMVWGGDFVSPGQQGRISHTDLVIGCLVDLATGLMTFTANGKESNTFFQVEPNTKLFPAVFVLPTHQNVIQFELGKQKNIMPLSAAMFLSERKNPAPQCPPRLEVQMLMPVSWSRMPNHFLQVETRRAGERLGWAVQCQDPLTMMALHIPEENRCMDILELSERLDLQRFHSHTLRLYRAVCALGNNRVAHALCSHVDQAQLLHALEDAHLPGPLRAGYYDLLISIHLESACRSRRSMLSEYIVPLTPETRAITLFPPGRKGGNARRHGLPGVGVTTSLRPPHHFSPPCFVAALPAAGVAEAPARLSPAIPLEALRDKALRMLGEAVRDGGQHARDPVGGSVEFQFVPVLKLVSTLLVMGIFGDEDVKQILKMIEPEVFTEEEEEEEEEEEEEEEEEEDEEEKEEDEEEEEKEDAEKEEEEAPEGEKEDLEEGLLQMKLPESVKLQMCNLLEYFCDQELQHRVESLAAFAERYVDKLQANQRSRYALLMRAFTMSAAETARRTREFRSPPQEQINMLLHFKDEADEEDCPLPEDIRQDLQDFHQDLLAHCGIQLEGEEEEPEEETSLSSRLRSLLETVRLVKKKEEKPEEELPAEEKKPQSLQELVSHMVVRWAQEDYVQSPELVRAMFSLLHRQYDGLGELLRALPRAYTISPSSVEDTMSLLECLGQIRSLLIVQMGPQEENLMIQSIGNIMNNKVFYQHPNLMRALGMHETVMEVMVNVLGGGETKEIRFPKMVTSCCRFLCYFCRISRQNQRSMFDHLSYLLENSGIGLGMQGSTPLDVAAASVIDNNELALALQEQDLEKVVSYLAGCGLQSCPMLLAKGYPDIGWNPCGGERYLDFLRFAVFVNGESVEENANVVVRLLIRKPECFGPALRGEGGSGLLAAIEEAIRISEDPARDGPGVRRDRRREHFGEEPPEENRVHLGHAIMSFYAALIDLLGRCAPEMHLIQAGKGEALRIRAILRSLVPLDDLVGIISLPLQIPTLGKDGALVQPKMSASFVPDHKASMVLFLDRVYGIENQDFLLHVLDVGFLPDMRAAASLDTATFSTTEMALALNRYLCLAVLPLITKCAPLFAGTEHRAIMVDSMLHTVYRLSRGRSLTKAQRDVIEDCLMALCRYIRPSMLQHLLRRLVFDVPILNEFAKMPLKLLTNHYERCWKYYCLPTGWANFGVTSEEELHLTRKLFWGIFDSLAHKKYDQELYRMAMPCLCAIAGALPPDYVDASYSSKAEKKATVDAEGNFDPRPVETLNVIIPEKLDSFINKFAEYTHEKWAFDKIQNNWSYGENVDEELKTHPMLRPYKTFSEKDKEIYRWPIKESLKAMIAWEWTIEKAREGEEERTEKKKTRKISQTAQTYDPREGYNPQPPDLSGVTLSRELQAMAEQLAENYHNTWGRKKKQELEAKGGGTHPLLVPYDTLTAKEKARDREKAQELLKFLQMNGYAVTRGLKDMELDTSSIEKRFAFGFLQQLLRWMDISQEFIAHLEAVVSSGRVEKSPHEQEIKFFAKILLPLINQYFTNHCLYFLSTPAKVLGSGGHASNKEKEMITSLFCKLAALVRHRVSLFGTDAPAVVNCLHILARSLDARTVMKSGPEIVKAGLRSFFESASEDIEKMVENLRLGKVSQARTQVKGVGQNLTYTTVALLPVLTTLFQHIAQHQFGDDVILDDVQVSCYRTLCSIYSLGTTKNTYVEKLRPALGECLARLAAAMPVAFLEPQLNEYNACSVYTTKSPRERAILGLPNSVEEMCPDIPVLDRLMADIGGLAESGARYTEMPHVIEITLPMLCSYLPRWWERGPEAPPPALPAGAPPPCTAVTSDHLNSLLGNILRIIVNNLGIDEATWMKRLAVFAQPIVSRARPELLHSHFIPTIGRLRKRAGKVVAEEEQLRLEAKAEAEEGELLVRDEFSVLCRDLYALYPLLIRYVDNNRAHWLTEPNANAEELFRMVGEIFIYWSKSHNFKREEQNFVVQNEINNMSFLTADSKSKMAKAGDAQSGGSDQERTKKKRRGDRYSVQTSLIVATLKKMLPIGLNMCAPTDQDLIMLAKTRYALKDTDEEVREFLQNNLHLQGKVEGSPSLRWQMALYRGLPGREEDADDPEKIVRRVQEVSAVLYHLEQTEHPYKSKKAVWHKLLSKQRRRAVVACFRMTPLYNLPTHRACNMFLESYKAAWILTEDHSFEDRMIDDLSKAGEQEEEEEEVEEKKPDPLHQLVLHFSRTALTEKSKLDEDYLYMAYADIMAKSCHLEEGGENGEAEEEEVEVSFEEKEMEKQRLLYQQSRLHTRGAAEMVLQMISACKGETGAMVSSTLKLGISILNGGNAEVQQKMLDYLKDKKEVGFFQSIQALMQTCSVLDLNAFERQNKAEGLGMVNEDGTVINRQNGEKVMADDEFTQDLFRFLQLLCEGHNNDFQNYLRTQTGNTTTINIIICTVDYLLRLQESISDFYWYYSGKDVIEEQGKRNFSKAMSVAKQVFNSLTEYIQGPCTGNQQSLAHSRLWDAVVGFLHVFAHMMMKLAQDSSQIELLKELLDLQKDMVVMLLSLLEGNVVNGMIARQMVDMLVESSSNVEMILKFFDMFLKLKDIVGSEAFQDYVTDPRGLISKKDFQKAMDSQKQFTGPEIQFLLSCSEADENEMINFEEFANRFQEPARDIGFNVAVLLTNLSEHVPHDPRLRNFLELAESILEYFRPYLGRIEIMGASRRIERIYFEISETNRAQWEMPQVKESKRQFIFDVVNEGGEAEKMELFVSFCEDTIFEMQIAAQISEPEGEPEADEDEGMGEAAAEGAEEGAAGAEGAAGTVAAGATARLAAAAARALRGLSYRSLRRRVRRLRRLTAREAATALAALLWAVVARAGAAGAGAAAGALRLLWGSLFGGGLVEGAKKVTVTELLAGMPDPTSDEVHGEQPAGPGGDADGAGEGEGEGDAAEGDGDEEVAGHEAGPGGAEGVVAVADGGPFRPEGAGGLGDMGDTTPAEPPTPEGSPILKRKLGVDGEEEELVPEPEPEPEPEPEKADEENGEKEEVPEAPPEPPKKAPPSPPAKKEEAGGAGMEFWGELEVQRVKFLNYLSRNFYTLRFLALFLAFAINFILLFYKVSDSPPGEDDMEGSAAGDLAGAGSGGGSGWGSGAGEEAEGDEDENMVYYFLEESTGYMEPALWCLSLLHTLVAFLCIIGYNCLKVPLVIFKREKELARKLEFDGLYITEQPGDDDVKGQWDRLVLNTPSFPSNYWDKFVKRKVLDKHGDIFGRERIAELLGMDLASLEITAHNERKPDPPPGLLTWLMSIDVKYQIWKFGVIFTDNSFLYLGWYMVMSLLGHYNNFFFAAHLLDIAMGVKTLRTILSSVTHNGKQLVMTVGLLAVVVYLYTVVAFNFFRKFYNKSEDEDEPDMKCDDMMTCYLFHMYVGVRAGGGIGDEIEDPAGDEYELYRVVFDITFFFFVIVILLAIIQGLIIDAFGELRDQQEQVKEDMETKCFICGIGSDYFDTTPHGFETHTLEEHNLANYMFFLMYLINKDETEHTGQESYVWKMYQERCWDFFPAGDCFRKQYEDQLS
substance,measurement,setting,value
φ-Xibalbin3-Xt3a,increase in intracellular Ca2+,[1],did not elicit an increase in intracellular Ca^2+; also recorded: does not elicit an increase in intracellular Ca2+ responses
same,Ca2+ response relative to control response,CaV1.3; replicate 1,100.265%
same,Ca2+ response relative to control response,CaV1.3; replicate 2,98.0302%
same,Ca2+ response relative to control response,CaV1.3; replicate 3,95.1795%
same,inhibition of Ca2+ responses,CaV1.3; Xt3a 3 µM,did not inhibit Ca^2+ responses
same,Ca2+ response relative to control response,[2]; replicate 1,102.763%
same,Ca2+ response relative to control response,[2]; replicate 2,100.13%
same,Ca2+ response relative to control response,[2]; replicate 3,100.441%
same,inhibition of Ca2+ responses,[2]; Xt3a 3 µM,did not inhibit Ca^2+ responses
same,rel Po,"ryanodine receptor; Woearly after 10nM Xt3a vs 1 micoM Ca, CT1124n",1.432
same,rel Po,"ryanodine receptor; Woearly after 10nM Xt3a vs 1 micoM Ca, CT1124p",0.937
same,rel Po,"ryanodine receptor; Woearly after 10nM Xt3a vs 1 micoM Ca, CT1125p (r7)",0.4348
same,rel Po,"ryanodine receptor; Woearly after 10nM Xt3a vs 1 micoM Ca, CT1125p (r12)",0.3976
same,rel Po,"ryanodine receptor; Woearly after 10nM Xt3a vs 1 micoM Ca, CT1126n",1.917
same,rel Po,"ryanodine receptor; Woearly after 10nM Xt3a vs 1 micoM Ca, CT1126p",0.1557
same,rel Po,"ryanodine receptor; Woearly after 10nM Xt3a vs 1 micoM Ca, CT1129p",0.23
same,rel Po,"ryanodine receptor; Woearly after 10nM Xt3a vs 1 micoM Ca, mean of 7 records",0.7864
same,rel Po,"ryanodine receptor; Woearly after 1 microM Xt3a vs 1 micoM Ca, CT1134 n",4.4537
same,rel Po,"ryanodine receptor; Woearly after 1 microM Xt3a vs 1 micoM Ca, CT1134 p",3.797
same,rel Po,"ryanodine receptor; Woearly after 1 microM Xt3a vs 1 micoM Ca, CT1135 n",34.6466
same,rel Po,"ryanodine receptor; Woearly after 1 microM Xt3a vs 1 micoM Ca, CT1136 n",1.926
same,rel Po,"ryanodine receptor; Woearly after 1 microM Xt3a vs 1 micoM Ca, CT1136 p",1.125
same,rel Po,"ryanodine receptor; Woearly after 1 microM Xt3a vs 1 micoM Ca, CT1137 n",1.615
same,rel Po,"ryanodine receptor; Woearly after 1 microM Xt3a vs 1 micoM Ca, CT1137p",7.5
same,rel Po,"ryanodine receptor; Woearly after 1 microM Xt3a vs 1 micoM Ca, CT1138n",1
same,rel Po,"ryanodine receptor; Woearly after 1 microM Xt3a vs 1 micoM Ca, CT1138p",8.033
same,rel Po,"ryanodine receptor; Woearly after 1 microM Xt3a vs 1 micoM Ca, mean (CT1135 p cell empty)",7.122
same,rel Po,"ryanodine receptor; Wolate after 10nM Xt3a vs 1 micoM Ca, CT1124n",0.8317
same,rel Po,"ryanodine receptor; Wolate after 10nM Xt3a vs 1 micoM Ca, CT1124p",12.1926
same,rel Po,"ryanodine receptor; Wolate after 10nM Xt3a vs 1 micoM Ca, CT1125p (r7)",0.7826
same,rel Po,"ryanodine receptor; Wolate after 10nM Xt3a vs 1 micoM Ca, CT1125p (r12)",0.9398
same,rel Po,"ryanodine receptor; Wolate after 10nM Xt3a vs 1 micoM Ca, CT1126n",0.9549
same,rel Po,"ryanodine receptor; Wolate after 10nM Xt3a vs 1 micoM Ca, CT1126p",1.131
same,rel Po,"ryanodine receptor; Wolate after 10nM Xt3a vs 1 micoM Ca, CT1129p",0.13
same,rel Po,"ryanodine receptor; Wolate after 10nM Xt3a vs 1 micoM Ca, mean of 7 records",2.423
same,rel Po,"ryanodine receptor; Wolate after 1 microM Xt3a vs 1 micoM Ca, CT1134 n",20.9074
same,rel Po,"ryanodine receptor; Wolate after 1 microM Xt3a vs 1 micoM Ca, CT1134 p",6.491
same,rel Po,"ryanodine receptor; Wolate after 1 microM Xt3a vs 1 micoM Ca, CT1135 n",34.2069
same,rel Po,"ryanodine receptor; Wolate after 1 microM Xt3a vs 1 micoM Ca, CT1135 p",0.02609
same,rel Po,"ryanodine receptor; Wolate after 1 microM Xt3a vs 1 micoM Ca, CT1136 n",4.7037
same,rel Po,"ryanodine receptor; Wolate after 1 microM Xt3a vs 1 micoM Ca, CT1136 p",2
same,rel Po,"ryanodine receptor; Wolate after 1 microM Xt3a vs 1 micoM Ca, CT1137 n",0.6923
same,rel Po,"ryanodine receptor; Wolate after 1 microM Xt3a vs 1 micoM Ca, CT1137p",0.75
same,rel Po,"ryanodine receptor; Wolate after 1 microM Xt3a vs 1 micoM Ca, CT1138n",2.952
same,rel Po,"ryanodine receptor; Wolate after 1 microM Xt3a vs 1 micoM Ca, CT1138p",2.133
same,rel Po,"ryanodine receptor; Wolate after 1 microM Xt3a vs 1 micoM Ca, mean of 10 records",7.486
same,Ca2+ response relative to control response,α7 nAChR; replicate 1,99.1155%
same,Ca2+ response relative to control response,α7 nAChR; replicate 2,100.788%
same,Ca2+ response relative to control response,α7 nAChR; replicate 3,96.222%
same,inhibition of Ca2+ responses,α7 nAChR; Xt3a 3 µM,did not inhibit Ca^2+ responses
